Measurements: patent EP3964206A1, “COMPOUNDS FOR THE TREATMENT OF COVID-19” (priority 2020, dated 2022)
Structures can show the parent of a compound that is named as a salt. Peptide text beside a SMILES is read from it. * marks the point of attachment. Cbz = O=C(OCc1ccccc1)*

test system: SARS-CoV-2; assay: microbe, parasite or virus in culture; format: cell-based; details: Severe acute respiratory syndrome coronavirus 2, 120 h

**Q.** With `C/C(=C\c1ccc(C(=O)O)cc1)c1ccc2c(c1)C(C)(C)CCC2(C)C` [Compound 26, 4-[2-(5,5,8,8-Tetramethyl-5,6,7,8-tetrahydronaphthalen-2-yl)-1(E)-propenyl]benzoic acid] as the compound, how does the IC50 read?
**A.** 33.7 µM

**Q.** With `CCC(C/C=C/c1ccccc1)(c1ccccc1)N(C)CC1CC1` (single isomer, unassigned; (+)) [Compound 89, (+)-N-(Cyclopropylmethyl)-N-[1-ethyl-1,4-diphenyl-3(E)-butenyl]-N-methylamine] as the compound, how does the IC50 read?
**A.** 11.2 µM

**Q.** Which IC50 does the source give for `CN(Cc1cnc2nc(N)nc(N)c2n1)c1ccc(C(=O)N[C@@H](CCC(=O)O)C(=O)O)cc1` [Compound 1, N-[4-[N-(2,4-Diaminopteridin-6-ylmethyl)-N-methylamino]benzoyl]-L-glutamic acid] here?
**A.** 0.05 µM

**Q.** For `CCN(CC)CCCCNc1ncc2cc(-c3c(Cl)cccc3Cl)c(NC(=O)NC(C)(C)C)nc2n1` [Compound 107, 1-tert-Butyl-3-[6-(2,6-dichlorophenyl)-2-[4-(diethylamino)butylamino]pyrido[2,3-d]pyrimidin-7-yl]urea], which IC50 is on record?
**A.** 145 µM

**Q.** With `CCCCOCCOc1ccc(-c2ccc3c(c2)C=C(C(=O)Nc2ccc([S@@+]([O-])Cc4cncn4CCC)cc2)CCCN3CC(C)C)cc1` [Compound 65, (-)-(S)-8-[4-(2-Butoxyethoxy)phenyl]-1-isobutyl-N-[4-(1-propyl-1H-imidazol-5-ylmethylsulfinyl)phenyl]-1,2,3,4-tetrahydro-1-benzazocine-5-carboxamide] as the compound, how does the IC50 read?
**A.** 55 µM

**Q.** `CC(C)(C)C(=O)C(=Cc1cccc([N+](=O)[O-])c1)n1cncn1` [Compound 76, 4,4-dimethyl-1-(3-nitrophenyl)-2-(1H-1,2,4-triazol-1-yl)-1-penten-3-one] was tested. Which IC50 did it give?
**A.** 4.33 µM

same assay, conditions: Severe acute respiratory syndrome coronavirus 2, 120 h, read-out: Maximum confluence reached (%)

**Q.** How did the Emax turn out when `COc1ccc2c(c1)[C@]1(C[C@H]1c1ccc3c(/C=C/c4ccc(CN5C[C@@H](C)O[C@@H](C)C5)cc4)n[nH]c3c1)C(=O)N2` [Compound 33, (1R,2S)-2-[3-[(E)-2-[4-[(cis-2,6-Dimethylmorpholin-4-yl)methyl]phenyl]vinyl]-1H-indazol-6-yl]-5'-methoxyspiro[cyclopropane-1,3'-indol]-2'(1'H)-one (2E)-but-2-enedioate] was run?
**A.** 105%

**Q.** `COc1ccc2cc1Oc1ccc(cc1)C[C@H]1c3cc(c(OC)cc3CCN1C)Oc1c(OC)c(OC)cc3c1[C@H](C2)N(C)CC3` [Compound 79, (1beta)-(S,S)-6,6',7,12-Tetramethoxy-2,2'-dimethylberbaman] was tested. Which Emax did it give?
**A.** 99.6%

**Q.** With `C/C(=C\c1ccc(C(=O)O)cc1)c1ccc2c(c1)C(C)(C)CCC2(C)C` [Compound 26, 4-[2-(5,5,8,8-Tetramethyl-5,6,7,8-tetrahydronaphthalen-2-yl)-1(E)-propenyl]benzoic acid] as the compound, how does the Emax read?
**A.** 106%

**Q.** For `N#Cc1cccc(C#N)c1-c1nc2c3ccc(Cl)cc3c3ccccc3c2[nH]1` [Compound 64, 2-(6-Chloro-1H-phenanthro[9,10-d]imidazol-2-yl)benzene-1,3-dicarbonitrile], which Emax is on record?
**A.** 98.5%

**Q.** With `COc1cc2c(NC3CCN(C(C)C)CC3)nc(N3CCC(F)(F)CC3)nc2cc1OCCCN1CCCC1` [Compound 95, 2-(4,4-Difluoropiperidin-1-yl)-6-methoxy-N-[1-(propan-2-yl)piperidin-4-yl]-7-[3-(pyrrolidin-1-yl)propoxy]quinazolin-4-amine] as the compound, how does the Emax read?
**A.** 31.1%

**Q.** `Cc1c(O)cccc1C(=O)N[C@@H](CSc1ccccc1)[C@H](O)CN1C[C@H]2CCCC[C@H]2C[C@H]1C(=O)NC(C)(C)C` [Compound 31, (3S,4aS,8aS)-N-tert-Butyl-2-[2(R)-hydroxy-3(R)-(3-hydroxy-2-methylbenzamido)-4-(phenylsulfanyl)butyl]perhydroisoquinoline-3-carboxamide methanesulfonate] was tested. Which Emax did it give?
**A.** 59.5%

**Q.** For `CC1(N2CCC(n3c([C@@H]4CCCNC4)nc4ccccc43)CC2)CCCCCCC1` [Compound 51, 1-[1-(1-Methylcyclooctyl)piperidin-4-yl]-2-[3(R)-piperidinyl]-1H-benzimidazole], which Emax is on record?
**A.** 57.8%

**Q.** For `O=C(O)Cc1cccc(OCCCN(Cc2cccc(C(F)(F)F)c2Cl)CC(c2ccccc2)c2ccccc2)c1` [Compound 71, 2-[3-[3-[N-[2-Chloro-3-(trifluoromethyl)benzyl]-N-(2,2-diphenylethyl)amino]propoxy]phenyl]acetic acid], which Emax is on record?
**A.** 38%

**Q.** For `Nc1nc(NC[C@H]2CC[C@H](CNS(=O)(=O)c3cccc4ccccc34)CC2)nc2ccccc12` [Compound 97, N-[[trans-4-[[(4-Amino-2-quinazolinyl)amino]methyl]cyclohexyl]methyl]-1-naphthalenesulfonamide], which Emax is on record?
**A.** 39.2%

**Q.** How did the Emax turn out when `NC(=NC1C2CC3CC(C2)CC1C3)Nc1ccc(I)cc1` (centres unmarked) [Compound 49, 2-(2-adamantyl)-1-(4-iodophenyl)guanidine] was run?
**A.** 81.8%

**Q.** With `Cc1cc(O[C@@H](CCC(F)(F)F)c2ccc(C(=O)NCCC(=O)O)cc2)cc(C)c1-c1ccc(C(C)(C)C)cc1` [Compound 57, N-(4-[(1S)-1-[(4'-tert-Butyl-2,6-dimethylbiphenyl-4-yl)oxy]-4,4,4-trifluorobutyl]benzoyl)-beta-alanine] as the compound, how does the Emax read?
**A.** 39.5%

**Q.** For `COc1cc2c(NC3CCN(C4CCCCC4)CC3)nc(N3CCCN(C(C)C)CC3)nc2cc1OCCCN1CCCCC1` [Compound 59, N-(1-Cyclohexylpiperidin-4-yl)-6-methoxy-7-[3-(1-piperidinyl)propoxy]-2-[4-(propan-2-yl)perhydro-1,4-diazepin-1-yl]quinazolin-4-amine], which Emax is on record?
**A.** 80.1%

**Q.** Which Emax does the source give for `CN1CCN(CC/C=C2/c3ccccc3Sc3ccc(S(=O)(=O)N(C)C)cc32)CC1` [Compound 109, (Z)-N,N-Dimethyl-9-[3-(4-methyl-1-piperazinyl)propylidene]thioxanthene-2-sulfonamide] here?
**A.** 36.5%

**Q.** How did the Emax turn out when `CCC(C/C=C/c1ccccc1)(c1ccccc1)N(C)CC1CC1` (single isomer, unassigned; (+)) [Compound 89, (+)-N-(Cyclopropylmethyl)-N-[1-ethyl-1,4-diphenyl-3(E)-butenyl]-N-methylamine] was run?
**A.** 58.3%

**Q.** With `COc1ccccc1[C@H](Cn1c(=O)n(C(C)(C)C(=O)O)c(=O)c2c(C)c(-c3ncco3)sc21)OC1CCOCC1` [Compound 61, 2-[1-[(2R)-2-(2-Methoxyphenyl)-2-(tetrahydro-2H-pyran-4-yloxy)ethyl]-5-methyl-6-(1,3-oxazol-2-yl)-2,4-dioxo-1,4-dihydrothieno[2,3-d]pyrimidin-3(2H)-yl]-2-methylpropanoic acid] as the compound, how does the Emax read?
**A.** 78.2%

**Q.** For `CN(Cc1cnc2nc(N)nc(N)c2n1)c1ccc(C(=O)N[C@@H](CCC(=O)O)C(=O)O)cc1` [Compound 1, N-[4-[N-(2,4-Diaminopteridin-6-ylmethyl)-N-methylamino]benzoyl]-L-glutamic acid], which Emax is on record?
**A.** 64%

**Q.** For `C[C@@H]1COCCN1c1cc(=O)n2c(n1)N(Cc1cncc(Cl)c1)[C@H](C(F)(F)F)CC2` [Compound 54, (8S)-9-[(5-Chloropyridin-3-yl)methyl]-2-[(3R)-3-methylmorpholin-4-yl]-8-(trifluoromethyl)-6,7,8,9-tetrahydro-4H-pyrimido[1,2-a]pyrimidin-4-one], which Emax is on record?
**A.** 89%

**Q.** With `CC(C)COCC(CN(Cc1ccccc1)c1ccccc1)N1CCCC1` (centres unmarked) [Compound 78, 1-[1-(N-Benzylanilino)-3-isobutoxy-2-propyl]pyrrolidine monohydrochloride monohydrate] as the compound, how does the Emax read?
**A.** 30.4%

**Q.** With `O=c1cc(N2CCOCC2)oc2c(-c3cccc4c3sc3ccccc34)cccc12` [Compound 69, 8-(Dibenzo[b,d]thien-4-yl)-2-(4-morpholinyl)-4H-1-benzopyran-4-one] as the compound, how does the Emax read?
**A.** 90.5%

**Q.** How did the Emax turn out when `O=[N+]([O-])c1ccc(N/N=C/c2sc(N3CCOCC3)nc2-c2ccccc2)c(S(=O)(=O)Nc2ccccc2Cl)c1` [Compound 73, N-(2-chlorophenyl)-2-[(2E)-2-[(2-morpholin-4-yl-4-phenyl-1,3-thiazol-5-yl)methylidene]hydrazinyl]-5-nitrobenzenesulfonamide] was run?
**A.** 53.9%

**Q.** How did the Emax turn out when `CCN(CC)CCCCNc1ncc2cc(-c3c(Cl)cccc3Cl)c(NC(=O)NC(C)(C)C)nc2n1` [Compound 107, 1-tert-Butyl-3-[6-(2,6-dichlorophenyl)-2-[4-(diethylamino)butylamino]pyrido[2,3-d]pyrimidin-7-yl]urea] was run?
**A.** 34.1%

**Q.** For `Nc1ncc(-c2ccnc(Nc3ccncc3)n2)c(CC2CC2)n1` [Compound 20, 4'-(Cyclopropylmethyl)-N2-(pyridin-4-yl)-4,5'-bipyrimidine-2,2'-diamine], which Emax is on record?
**A.** 98.2%

**Q.** How did the Emax turn out when `COc1cc(NCc2ccc3nc(N)nc(N)c3c2C)cc(OC)c1OC` [Compound 2, 2,4-Diamino-5-methyl-6-[(3,4,5-trimethoxyanilino)methyl]quinazoline] was run?
**A.** 78.2%

**Q.** With `c1cncc(CN2CCC(n3ncc4c(N5CCOCC5)nc(-c5ccc6[nH]ccc6c5)nc43)CC2)c1` [Compound 32, 6-(1H-Indol-5-yl)-4-(4-morpholinyl)-1-[1-(pyridin-3-ylmethyl)piperidin-4-yl]-1H-pyrazolo[3,4-d]pyrimidine] as the compound, how does the Emax read?
**A.** 67.7%

**Q.** `CCCCOCCOc1ccc(-c2ccc3c(c2)C=C(C(=O)Nc2ccc([S@@+]([O-])Cc4cncn4CCC)cc2)CCCN3CC(C)C)cc1` [Compound 65, (-)-(S)-8-[4-(2-Butoxyethoxy)phenyl]-1-isobutyl-N-[4-(1-propyl-1H-imidazol-5-ylmethylsulfinyl)phenyl]-1,2,3,4-tetrahydro-1-benzazocine-5-carboxamide] was tested. Which Emax did it give?
**A.** 70.9%

**Q.** Which Emax does the source give for `CCN(CC)CCO[C@H]1CC[C@@]2(C)C(=CC[C@@H]3[C@@H]2CC[C@]2(C)C(=O)CC[C@@H]32)C1` [Compound 80, 3beta-[2-(Diethylamino)ethoxy]androst-5-en-17-one hydrochloride] here?
**A.** 44.7%

**Q.** Which Emax does the source give for `CC(C)(C)C(=O)C(=Cc1cccc([N+](=O)[O-])c1)n1cncn1` [Compound 76, 4,4-dimethyl-1-(3-nitrophenyl)-2-(1H-1,2,4-triazol-1-yl)-1-penten-3-one] here?
**A.** 50.4%

**Q.** With `Cc1cccc(Nc2nc(-c3ccncc3)cs2)c1` [Compound 85, N-(3-Methylphenyl)-4-(4-pyridyl)thiazol-2-amine] as the compound, how does the Emax read?
**A.** 47.8%

**Q.** Which Emax does the source give for `Cc1ccc(C(=O)Nc2cccc(C(F)(F)F)c2)cc1Nc1nc(-c2cccnc2)nc2c1cnn2C` [Compound 62, 4-methyl-3-{[1-methyl-6-(3-pyridinyl)-1H-pyrazolo[3,4-d]pyrimidin-4-yl]amino}-N-[3-(trifluoromethyl)phenyl]benzamide] here?
**A.** 88.4%

**Q.** How did the Emax turn out when `CCCCN(CCCC)CCC(O)c1cc2c(Cl)cc(Cl)cc2c2cc(C(F)(F)F)ccc12` (racemic) [Compound 40, (±)-1,3-Dichloro-9-[3-(dibutylamino)-1-hydroxypropyl]-6-(trifluoromethyl)phenanthrene hydrochloride] was run?
**A.** 51.8%

**Q.** Which Emax does the source give for `CC(C)C[C@@H](C=O)NC(=O)[C@H](CC(C)C)NC(=O)[C@H](CC(C)C)NC(=O)OCc1ccccc1` [Compound 52, Benzyloxycarbonyl-L-leucyl-L-leucyl-L-leucinal] (Cbz-Leu-Leu-Leu-aldehyde) here?
**A.** 82.8%

**Q.** For `O=C(c1c2ccccc2cc2ccccc12)N1CCC(N2CCC[C@@H](C(=O)N3CCOCC3)C2)CC1` [Compound 81, 1-[1'-(Anthracen-9-ylcarbonyl)-1,4'-bipiperidin-3(R)-yl]-1-(4-morpholinyl)methanone], which Emax is on record?
**A.** 51%

**Q.** With `C[C@@H]1C[C@@H]([C@H](O)CC2CC(=O)NC(=O)C2)C(=O)[C@@H](C)C1` [Compound 58, 4-[2(R)-[(1S,3S,5S)-3,5-Dimethyl-2-oxocyclohexyl]-2-hydroxyethyl]piperidine-2,6-dione] as the compound, how does the Emax read?
**A.** 63.7%

**Q.** Which Emax does the source give for `OCCNC1CCCc2c1[nH]c1ccc(-c3ccccc3)cc21` (centres unmarked) [Compound 77, 2-[(6-Phenyl-2,3,4,9-tetrahydro-1H-carbazol-1-yl)amino]ethanol] here?
**A.** 50.8%

**Q.** How did the Emax turn out when `CC(C)N1CCN(c2ccc(C(=O)c3c(-c4ccc(O)cc4)sc4cc(O)ccc34)cc2)CC1` [Compound 87, 1-[6-Hydroxy-2-(4-hydroxyphenyl)-1-benzothien-3-yl]-1-[4-(4-isopropylpiperazin-1-yl)phenyl]methanone] was run?
**A.** 41%
